Source: patent US20250320205A1, “STAT6 DEGRADERS” (Gilead Sciences, Inc., priority 2024, published 2025)
pEC50: −log10 of the molar value.

Target: T1, STAT6 (Homo sapiens, UniProt P42226)
T1 construct: These cells express endogenous STAT6; host or cells: HeLa LgBiT clone 4.14 (CRISPR knock-in of HiBiT into the endogenous STAT6 gene)
T1 sequence (P42226 1-847): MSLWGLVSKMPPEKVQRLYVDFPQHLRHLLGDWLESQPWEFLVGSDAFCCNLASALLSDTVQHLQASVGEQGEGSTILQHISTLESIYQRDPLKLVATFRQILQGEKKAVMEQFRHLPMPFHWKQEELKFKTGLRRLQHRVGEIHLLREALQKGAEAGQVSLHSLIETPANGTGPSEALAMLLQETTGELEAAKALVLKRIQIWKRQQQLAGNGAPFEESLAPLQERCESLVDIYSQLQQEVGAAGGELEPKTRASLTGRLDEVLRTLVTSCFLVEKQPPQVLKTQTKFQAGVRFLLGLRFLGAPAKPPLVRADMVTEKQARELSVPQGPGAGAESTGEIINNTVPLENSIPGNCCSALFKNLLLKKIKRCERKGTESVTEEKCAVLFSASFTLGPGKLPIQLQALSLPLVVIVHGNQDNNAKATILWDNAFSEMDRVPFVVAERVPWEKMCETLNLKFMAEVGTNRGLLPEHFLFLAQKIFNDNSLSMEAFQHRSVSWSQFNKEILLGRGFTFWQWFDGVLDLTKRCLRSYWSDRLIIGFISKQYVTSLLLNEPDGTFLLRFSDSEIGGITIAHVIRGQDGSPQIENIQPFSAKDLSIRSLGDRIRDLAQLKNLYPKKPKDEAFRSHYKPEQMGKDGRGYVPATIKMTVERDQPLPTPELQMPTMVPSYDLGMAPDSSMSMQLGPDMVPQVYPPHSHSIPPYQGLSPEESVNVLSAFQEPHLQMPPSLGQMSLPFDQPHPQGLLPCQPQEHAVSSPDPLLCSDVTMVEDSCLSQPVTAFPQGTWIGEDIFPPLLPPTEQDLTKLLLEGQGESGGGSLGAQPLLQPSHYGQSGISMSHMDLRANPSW
Experiment: STAT6 Degrader Assay (HiBiT based, HeLa LgBiT clone 4.14 cells)
Assay type: cell-based
Settings: geometric mean across assay runs and compound batches; DC50 provided for test compounds with >80% Emax; read-out: STAT6 degradation DC50
Method: This was a HiBit based assay. A HeLa cell line stably transfected with a small protein, LgBit (Large Bit) was obtained from Promega. These cells express endogenous STAT6. A small 11 amino acid gene sequence (HiBiT) was inserted in the STAT6 gene using CRISPR technology. Once STAT6 protein is expressed in the cells, the HiBiT sequence will bind the LgBit in the cells resulting in a functional NanoBiT protein, giving a luminescent tag to STAT6. Single cell clones were prepared and the clone 4.14 was selected for the assay based on that clone showing high luminescence, high STAT6 phosphorylation upon stimulation with IL-4, and inhibition of luminescence when cells were treated with STAT6 siRNA. HeLa LgBiT clone 4.14 cells were suspended in DMEM with 10% FCS, 1% Pen/Strep, Na-pyrovate and Hygromycin B, at a concentration of 1.25*105 cells pr mL. 5000 cells were added pr well of a 384 well plate and 20 nL of compound was added by Echo® liquid handler. NN6394A (terfenadine, a toxic compound) was added to control wells at 50 μM concentration to establish the assay window. In these wells the cells are dead which equals 100% degradation of STAT6. After 4-24 h of incubation at 37° C. under 5% CO2/95% air, 5 μL substrate (Nano-GLO®) was added to the wells and the plates were centrifuged and incubated for 0.5 h. The luminescence in the wells as a measure of non-degraded STAT6 was measured in a plate reader (BMG Pherastar FSX). The measured DC50 (in nM) was determined.

DC50 [nM] | Compound
22.2 | CNc1ccn(-c2ccnc3c2cc([C@H](C)N2CC=C(c4c(C)cc(C(=O)N5CCC(CN6CCN(c7ccc(N[C@@H]8CCC(=O)NC8=O)cc7F)C[C@@H]6C)CC5)cc4F)CC2)n3C)c(=O)c1 (single isomer, unassigned) [Example 2g99]
6.9 | Cc1cc(C(=O)N2CCC(CN3CCN(c4ccc(N[C@@H]5CCC(=O)NC5=O)cc4F)CC3)CC2)cc(F)c1C1=CCN([C@@H](C)c2cc3c(-n4ccc5c(c4=O)CCN5)ccnc3n2C)CC1 (single isomer, unassigned) [Example 2g20]
7.3 | CNc1ccn(-c2ccnc3c2cc(CN2CC=C(c4c(C)cc(C(=O)N5CCC(CN6CCN(c7ccc(NC8CCC(=O)NC8=O)cc7F)CC6)CC5)cc4F)CC2)n3C)c(=O)c1 (stereo not drawn) [Example 2g54, 3-((3-fluoro-4-(4-((1-(3-fluoro-5-methyl-4-(1-((1-methyl-4-(4-(methylamino)-2-oxopyridin-1(2H)-yl)-1H-pyrrolo[2,3-b]pyridin-2-yl)-methyl)-1,2,3,6-tetrahydro-pyridin-4-yl)benzoyl)piperi-din-4-yl)methyl)piperazin-1-yl)phenyl)amino)piperidine-2,6-dione]

System: Eotaxin-3 (CCL26) release
Experiment: Human Whole Blood Eotaxin-3 Assay (IL-4 stimulated)
Assay type: cell-based
Settings: Homo sapiens; geometric mean across assay runs and compound batches; EC50 provided for test compounds with >80% Emax
Method: This was a human whole blood assay using recombinant human Interleukin 4 to stimulate the blood and measuring the ability of the test compounds to inhibit eotaxin-3 release. The biological activities of the test compounds have been tested in human whole blood stimulated with IL-4 measuring Eotaxin-3 release. The test compounds were added to 384 well clear flat-bottom plate in a 4-fold serial dilution in triplicates using a liquid handler. Human whole blood stabilized in lithium-heparin tubes was added in a volume of 65 μL per well, resulting in a final DMSO concentration of 0.5%. The plate is incubated for 2 h at 37° C. under 5% CO2/95% air. Subsequently, 5 μL of recombinant human IL-4 (R&D Systems, cat #204-ILB) was added to the wells to a final concentration of 400 pM. The plate was incubated for 48 h at 37° C. under 5% CO2/95% air. The plate was spun down for 10 minutes at 500×g and 20 μL supernatant was harvested and transferred to a 384 well v-bottom plate using a liquid handler and stored at −20° C. until further analysis. 10 μL supernatant was used to measure the level of Eotaxin-3 (CCL26) using Human Eotaxin-3 MSD kit from Mesocsale (Cat #K251UEK-4). The assay was performed according to the manufacture instructions.

pEC50 | Compound
7.89 | CNc1ccn(-c2ccnc3c2cc([C@H](C)N2CC=C(c4c(C)cc(C(=O)N5CCC(CN6CCN(c7ccc(NC8CCC(=O)NC8=O)c(OC)c7)CC6)CC5)cc4F)CC2)n3C)c(=O)c1 (stereo partly drawn) [Example 2g125, 3-((4-(4-((1-(3-fluoro-5-meth-yl-4-(1-((S)-1-(1-methyl-4-(4-(methylamino)-2-oxopyridin-1(2H)-yl)-1H-pyrrolo[2,3-b]pyridin-2-yl)ethyl)-1,2,3,6-tetrahydropyridin-4-yl)benzo-yl)piperidin-4-yl)methyl)-piperazin-1-yl)-2-methoxy-phenyl)amino)piperidine-2,6-dione]
7.00 | CNc1cc(=O)n(-c2ccnc3c2cc(CN2CC=C(c4c(F)cc(C(=O)N5CCC(CN6CCN(c7ccc(N[C@@H]8CCC(=O)NC8=O)cc7F)CC6)CC5)cc4F)CC2)n3C)cc1F (single isomer, unassigned) [Example 2g67]
8.77 | CNc1nc(=O)n(-c2ccnc3c2cc([C@H](C)N2CC=C(c4c(C)cc(C(=O)N5CCn6nc(CN7CCC(c8ccc(NC9CCC(=O)NC9=O)c(OC)c8)CC7)cc6C5)cc4F)CC2)n3C)cc1F (stereo partly drawn) [Example 2g8, 3-((4-(1-((5-(3-fluoro-4-(1-((S)-1-(4-(5-fluoro-4-(meth-ylamino)-2-oxopyrimidin-1(2H)-yl)-1-methyl-1H-pyrrolo[2,3-b]pyridin-2-yl)-ethyl)-1,2,3,6-tetrahydro-pyridin-4-yl)-5-methylbenzo-yl)-4,5,6,7-tetrahydropyrazolo [1,5-a]pyrazin-2-yl)methyl)-piperidin-4-yl)-2-methoxy-phenyl)amino)-piperidine-2,6-dione]
6.57 | Cc1cc(C(=O)N2CCC(CN3CCN(c4ccc(NC5CCC(=O)NC5=O)cc4F)CC3)CC2)cc(F)c1C1=CCN([C@@H](C)c2cc3c(-n4cc(F)c5c(c4=O)CCN5)ccnc3n2C)CC1 (stereo partly drawn) [Example 2g31, 3-((3-fluoro-4-(4-((1-(3-fluoro-4-(1-((S)-1-(4-(7-fluoro-4-oxo-1,2,3,4-tetra-hydro-5H-pyrrolo[3,2-c]pyridin-5-yl)-1-methyl-1H-pyrrolo[2,3-b]pyridin-2-yl)-ethyl)-1,2,3,6-tetrahydro-pyridin-4-yl)-5-methylbenzo-yl)-piperidin-4-yl)methyl)-piperazin-1-yl)phenyl)-amino)piperidine-2,6-dione]
7.29 | CNc1cc(=O)n(-c2ccnc3c2cc([C@@H](C)N2CCC(c4c(F)cc(C(=O)N5CCn6nc(CN7CCC(c8ccc(NC9CCC(=O)NC9=O)cc8F)CC7)cc6C5)cc4F)CC2)n3C)cc1F (stereo partly drawn) [Example 2g51, 3-((4-(1-((5-(3,5-difluoro-4-(1-((R)-1-(4-(5-fluoro-4-(methylamino)-2-oxopyridin-1(2H)-yl)-1-methyl-1H-pyrrolo[2,3-b]pyridin-2-yl)-ethyl)piperidin-4-yl)benzoyl)-4,5,6,7-tetrahydropyrazolo [1,5-a]pyrazin-2-yl)methyl)-piperidin-4-yl)-3-fluorophen-yl)amino)piperidine-2,6-dione]
7.73 | CNc1nc(=O)n(-c2ccnc3c2cc(CN2CCC(c4c(F)cc(C(=O)N5CCn6nc(CN7CCC(c8ccc(NC9CCC(=O)NC9=O)c(OC)c8)CC7)cc6C5)cc4F)CC2)n3C)cc1F (stereo not drawn) [Example 2c50, 3-((4-(1-((5-(3,5-difluoro-4-(1-((4-(5-fluoro-4-(methyl-amino)-2-oxopyrimidin-1(2H)-yl)-1-methyl-1H-pyr-rolo[2,3-b]pyridin-2-yl)meth-yl)piperidin-4-yl)benzoyl)-4,5,6,7-tetrahydropyrazolo-[1,5-a]pyrazin-2-yl)methyl)-piperidin-4-yl)-2-methoxy-phenyl)amino)piperidine-2,6-dione]
6.10 | CNc1ccn(-c2ccnc3c2cc([C@H](C)N2CC=C(c4c(C)cc(C(=O)N5CCn6c(nnc6C6CCN(Cc7ccc(NC8CCC(=O)NC8=O)c(OC)c7)CC6)C5)cc4F)CC2)n3C)c(=O)c1 (stereo partly drawn) [Example 2g9, 3-((4-((4-(7-(3-fluoro-5-methyl-4-(1-((S)-1-(1-methyl-4-(4-(methylamino)-2-oxo-pyridin-1(2H)-yl)-1H-pyrrolo [2,3-b]pyridin-2-yl)ethyl)-1,2,3,6-tetrahydropyridin-4-yl)benzoyl)-5,6,7,8-tetra-hydro[1,2,4]triazolo[4,3-a]pyrazin-3-yl)piperidin-1-yl)-methyl)-2-methoxyphenyl)-amino)-piperidine-2,6-dione]
6.92 | CNc1cc(=O)n(-c2ccnc3c2cc([C@@H](C)N2CC=C(c4c(F)cc(C(=O)N5CCn6nc(CN7CCC(c8ccc(NC9CCC(=O)NC9=O)cc8F)CC7)cc6C5)cc4F)CC2)n3C)cc1F (stereo in doubt) [Example 2g2, 3-((4-(1-((5-(3,5-difluoro-4-(1-((R)-1-(4-(5-fluoro-4-(methylamino)-2-oxopyridin-1(2H)-yl)-1-methyl-1H-pyrrolo[2,3-b]pyridin-2-yl)-ethyl)-1,2,3,6-tetrahydro-pyridin-4-yl)benzoyl)-4,5,6,7-tetrahydropyrazolo[1,5-a]pyrazin-2-yl)methyl)piperi-din-4-yl)-3-fluorophenyl)-amino)piperidine-2,6-dione]
8.06 | C[C@@H](c1cc2c(-n3cc(F)c4c(c3=O)CCN4)ccnc2n1C)N1CC=C(c2c(F)cc(C(=O)N3CCn4nc(CN5CCC(c6ccc(NC7CCC(=O)NC7=O)cc6F)CC5)cc4C3)cc2F)CC1 (stereo partly drawn) [Example 2g3, 3-((4-(1-((5-(3,5-difluoro-4-(1-((S)-1-(4-(7-fluoro-4-oxo-1,2,3,4-tetrahydro-5H-pyrrolo [3,2-c]pyridin-5-yl)-1-methyl-1H-pyrrolo[2,3-b]pyridin-2-yl)ethyl)-1,2,3,6-tetrahydro-pyridin-4-yl)benzoyl)-4,5,6,7-tetrahydropyrazolo[1,5-a]pyrazin-2-yl)methyl)piperi-din-4-yl)-3-fluorophenyl)-amino)piperidine-2,6-dione]
